US7811797B2, “α-isomaltosylglucosaccharide-forming enzyme, process and uses of the same” (Kabushiki Kaisha Hayashibara Seibutsu Kagaku Kenkyujo, priority 2000, dated 2010)
Like-named read-outs stand apart in the source and are kept apart here.

Columns and labels:
[1] = system: α-isomaltosylglucosaccharide-forming enzyme; test: Influence of metal ions on the activity of α-isomaltosylglucosaccharide-forming enzyme (Strain A19); assay type: biochemical, Arthrobacter globiformis A19; conditions: for Relative activity (%): 1 mM of each metal-ion; for influence on the enzyme activity, in words: 1 mM
[2] = system: α-isomaltosyl-transferring enzyme; test: Influence of metal ions on the activity of α-isomaltosyl-transferring enzyme (Strain S1); assay type: biochemical, Arthrobacter ramosus S1; conditions: for Relative activity (%): 1 mM of each metal-ion
Method: (§1) The α-isomaltosyl-transferring enzyme was assayed for enzymatic activity by dissolving panose in 100 mM acetate buffer (pH 6.0) to give a concentration of 2% (w/v) for a substrate solution, adding a 0.5 ml of an enzyme solution to 0.5 ml of the substrate solution, enzymatically reacting the mixture solution at 35° C. for 30 min, suspending the reaction mixture by boiling for 10 min, and quantifying glucose, among the cyclotetrasaccharide and glucose formed in the reaction mixture, by the glucose oxidase method. One unit activity of the α-isomaltosyl-transferring enzyme is defined as the enzyme amount that forms one micromole of glucose per minute under the above enzymatic reaction conditions. Throughout the specification, the enzymatic activity of the α-isomaltosyl-transferring enzyme means the unit(s) assayed as above.
(§2) The influence of metal ions on the activity of α-isomaltosyl-transferring enzyme was examined in the presence of 1 mM of each metal-ion according to the assay for the enzyme activity.

[3] = system: α-isomaltosyl-transferring enzyme; test: Influence of metal ions on the activity of α-isomaltosyl-transferring enzyme (Strain C9); assay type: biochemical, Bacillus globisporus C9; conditions: for Relative activity (%): 1 mM of each metal-ion; for influence on the enzyme activity, in words: 1 mM
Method: as §1, with “above. […]” for “above.”

[4] = system: α-isomaltosyl-transferring enzyme; assay type: biochemical, Bacillus globisporus C11
Method: as §1, §2

[5] = system: α-isomaltosyl-transferring enzyme; test: Influence of metal ions on the activity of α-isomaltosyl-transferring enzyme (Strain N75); assay type: biochemical, Bacillus globisporus N75; conditions: for Relative activity (%): 1 mM of each metal-ion; for influence on the enzyme activity, in words: 1 mM
Method: as §1, §2

[6] = system: α-isomaltosylglucosaccharide-forming enzyme; test: Influence of metal ions on the activity of α-isomaltosylglucosaccharide-forming enzyme (Strain C9); assay type: biochemical, Bacillus globisporus C9; conditions: 1 mM of each metal-ion
Method: (§3) One unit activity of the α-isomaltosylglucosaccharide-forming enzyme is defined as the enzyme amount that forms one micromole of maltose per minute under the above enzymatic reaction conditions. Throughout the specification, the enzymatic activity of the α-isomaltosylglucosaccharide-forming enzyme means the unit(s) assayed as above.
(§4) The influence of metal ions on the activity of α-isomaltosylglucosaccharide-forming enzyme was examined in the presence of 1 mM of each metal-ion according to the assay for the enzyme activity.

[7] = system: α-isomaltosylglucosaccharide-forming enzyme; test: Influence of metal ions on the activity of α-isomaltosylglucosaccharide-forming enzyme (Strain N75); assay type: biochemical, Bacillus globisporus N75; conditions: for influence on the enzyme activity, in words: 1 mM; for Relative activity (%): 1 mM of each metal-ion
Method: as §3, §4

[8] = system: α-isomaltosylglucosaccharide-forming enzyme; test: Influence of metal ions on the activity of α-isomaltosylglucosaccharide-forming enzyme (Strain C11); assay type: biochemical, Bacillus globisporus C11; conditions: for influence on the enzyme activity, in words: 1 mM; for Relative activity (%): 1 mM of each metal-ion
Method: as §3
The influence of metal ions on the activity of α-isomaltosylglucosaccharide forming enzyme was examined in the presence of 1 mM of each metal-ion according to the assay for the enzyme activity.

[9] = system: α-isomaltosylglucosaccharide-forming enzyme; test: Transfer-acceptor specificity, Enzyme of Strain A19; assay type: biochemical, Arthrobacter globiformis A19; conditions: acceptor 1.6%, PINE-DEX #100 donor 4%, one unit/g donor, 30° C., pH 8.4, 24 hours
How it was run: (§5)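 Each candidate acceptor at 1.6% was combined with 4% partial starch hydrolysate donor and 1 unit/g donor (d.s.b.) of purified enzyme. Incubation ran 24 h at 30 °C, pH 6.0 for the C9, C11 and N75 enzymes and pH 8.4 for A19. Transfer products were detected by GLC for mono- and disaccharide acceptors and HPLC for trisaccharide acceptors.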

[10] = system: α-isomaltosylglucosaccharide-forming enzyme; test: Action on saccharides (substrates), Enzyme of Strain A19; assay type: biochemical, Arthrobacter globiformis A19; design: key: −: it showed no change; +: it showed a slight reduction of the color spot of the substrate and the formation of other reaction product; ++: it showed a high reduction of the color spot of the substrate and the formation of other reaction product; +++: it showed a substantial disappearance of the substrate spot and the formation of other reaction product; conditions: two units/g substrate, substrate 2% (w/v), 30° C., pH 8.4, 24 hours, TLC
Method: (§6) It was tested whether saccharides can be used as substrates for the α-isomaltosylglucosaccharide-forming enzyme. For the purpose, a solution of maltose, maltotriose, maltotetraose, maltopentaose, maltohexaose, maltoheptaose, isomaltose, isomaltotriose, panose, isopanose, trehalose, kojibiose, nigerose, neotrehalose, cellobiose, gentibiose, maltitol, maltotriitol, lactose, sucrose, erlose, selaginose, maltosyl glucoside, or isomaltosyl glucoside was prepared.
(§7) To each of the above solutions was added two units/g substrate of a purified specimen of α-isomaltosylglucosaccharide-forming enzyme from either Bacillus globisporus C9 obtained by the method in Experiment 4-2, Bacillus globisporus C11 obtained by the method in Experiment 7-2, Bacillus globisporus N75 obtained by the method in Experiment 11-2, or Arthrobacter globiformis A19 obtained by the method in Experiment 15-2, and the resulting each solution was adjusted to give a substrate concentration of 2% (w/v) and incubated at 30° C. and pH 6.0, except for using pH 8.4 for the enzyme from Arthrobacter globiformis A19, for 24 hours. The enzyme solutions before and after the enzymatic reactions were respectively analyzed on TLC disclosed in Experiment 1 to confirm whether the enzymes acted on these substrates.

[11] = system: α-isomaltosylglucosaccharide-forming enzyme; test: Action on saccharides (substrates), Enzyme of Strain C11; assay type: biochemical, Bacillus globisporus C11; design: key: −: it showed no change; +: it showed a slight reduction of the color spot of the substrate and the formation of other reaction product; ++: it showed a high reduction of the color spot of the substrate and the formation of other reaction product; +++: it showed a substantial disappearance of the substrate spot and the formation of other reaction product; conditions: two units/g substrate, substrate 2% (w/v), 30° C., pH 6.0, 24 hours, TLC
Method: as §6, §7

[12] = system: α-isomaltosylglucosaccharide-forming enzyme; test: Action on saccharides (substrates), Enzyme of Strain C9; assay type: biochemical, Bacillus globisporus C9; design: key: −: it showed no change; +: it showed a slight reduction of the color spot of the substrate and the formation of other reaction product; ++: it showed a high reduction of the color spot of the substrate and the formation of other reaction product; +++: it showed a substantial disappearance of the substrate spot and the formation of other reaction product; conditions: two units/g substrate, substrate 2% (w/v), 30° C., pH 6.0, 24 hours, TLC
Method: as §6, §7

[13] = system: α-isomaltosylglucosaccharide-forming enzyme; test: Action on saccharides (substrates), Enzyme of Strain N75; assay type: biochemical, Bacillus globisporus N75; design: key: −: it showed no change; +: it showed a slight reduction of the color spot of the substrate and the formation of other reaction product; ++: it showed a high reduction of the color spot of the substrate and the formation of other reaction product; +++: it showed a substantial disappearance of the substrate spot and the formation of other reaction product; conditions: two units/g substrate, substrate 2% (w/v), 30° C., pH 6.0, 24 hours, TLC
Method: as §6, §7

[14] = system: α-isomaltosylglucosaccharide-forming enzyme; test: Transfer-acceptor specificity, Enzyme of Strain C9; assay type: biochemical, Bacillus globisporus C9; conditions: acceptor 1.6%, PINE-DEX #100 donor 4%, one unit/g donor, 30° C., pH 6.0, 24 hours
How it was run: as §5

[15] = system: α-isomaltosylglucosaccharide-forming enzyme; test: Transfer-acceptor specificity, Enzyme of Strain N75; assay type: biochemical, Bacillus globisporus N75; conditions: acceptor 1.6%, PINE-DEX #100 donor 4%, one unit/g donor, 30° C., pH 6.0, 24 hours
How it was run: as §5

[16] = system: α-isomaltosylglucosaccharide-forming enzyme; test: Transfer-acceptor specificity, Enzyme of Strain C11; assay type: biochemical, Bacillus globisporus C11; conditions: acceptor 1.6%, PINE-DEX #100 donor 4%, one unit/g donor, 30° C., pH 6.0, 24 hours

| SMILES | Relative activity (%) [1] | Relative activity (%) [2] | Relative activity (%) [3] | Relative activity (%) ([4]; 1 mM of each metal-ion) | Relative activity (%) [5] | Relative activity (%) [6] | Relative activity (%) [7] | influence on the enzyme activity, in words [8] | Relative activity (%) [8] | further results |
| --- | --- | --- | --- | --- | --- | --- | --- | --- | --- | --- |
| [Ni+2] [Ni^2+] | 46% | 87% | 102% | 89% | 91% |  |  |  |  |  |
| [Mn+2] [Mn^2+] |  |  | 106% |  |  | 111% | 120% | activated | 142% | influence on the enzyme activity, in words [7]: activated |
| [Cu+2] [Cu^2+] | 0% | 2% | 57% | 56% | 15% | 15% | 7% | greatly inhibited | 23% | influence on the enzyme activity, in words [1]: greatly inhibited; influence on the enzyme activity, in words ([2]; 1 mM): also inhibited; influence on the enzyme activity, in words [3]: also inhibited; influence on the enzyme activity, in words [7]: greatly inhibited; influence on the enzyme activity, in words [5]: also inhibited |
| [Zn+2] [Zn^2+] | 56% | 78% | 88% | 83% | 75% | 92% | 82% |  | 91% |  |
| [Al+3] [Al^3+] | 37% | 93% | 103% | 89% | 94% |  |  |  |  |  |
| [Co+2] [Co^2+] | 93% | 91% | 103% | 89% | 92% | 100% | 93% |  | 96% |  |
| [Sr+2] [Sr^2+] | 102% | 101% | 101% | 93% | 91% | 80% | 85% | also inhibited | 83% |  |
| O=C(O)CN(CCN(CC(=O)O)CC(=O)O)CC(=O)O [EDTA, ethylenediaminetetraacetic acid, reference compound] | 2% | 91% | 104% |  | 92% | 20% | 35% | greatly inhibited | 24% | influence on the enzyme activity, in words [1]: greatly inhibited; influence on the enzyme activity, in words [3]: not inhibited; influence on the enzyme activity, in words [7]: greatly inhibited; Relative activity (%) [4]: 98%; influence on the enzyme activity, in words [4]: not inhibited; influence on the enzyme activity, in words [5]: not inhibited |
| [Fe+2] [Fe^2+] | 36% |  |  |  |  |  | 82% |  |  | Relative activity (%) ([1]; listed as Fe^3+): 35%; Relative activity (%) ([2]; listed as Fe^3+): 75%; Relative activity (%) ([4]; 1 mM of each metal-ion, listed as Fe^3+): 88%; Relative activity (%) ([5]; listed as Fe^3+): 90% |
| [Pb+2] [Pb^2+] | 43% | 85% | 89% | 74% | 69% | 103% | 86% |  | 101% |  |
| OC[C@H]1O[C@H](OC[C@H]2O[C@H](OC[C@H]3OC(O)[C@H](O)[C@@H](O)[C@@H]3O)[C@H](O)[C@@H](O)[C@@H]2O)[C@H](O)[C@@H](O)[C@@H]1O (stereo partly shown) [Isomaltotriose] |  |  |  |  |  |  |  |  |  | Product of transferring reaction, Enzyme of Stain A19 [9]: ∀ (a saccharide-transferred product was detected in an amount less than one percent through transfer reaction to acceptor); Enzymatic action, Enzyme of Strain A19 [10]: −; Enzymatic action, Enzyme of Strain C11 [11]: −; Enzymatic action, Enzyme of Strain C9 [12]: −; Enzymatic action, Enzyme of Strain N75 [13]: −; Product of transferring reaction, Enzyme of Strain C9 [14]: ++ (a saccharide-transferred product was detected in an amount over ten percent through transfer reaction to acceptor); Product of transferring reaction, Enzyme of Strain N75 [15]: ++ (a saccharide-transferred product was detected in an amount over ten percent through transfer reaction to acceptor); Product of transferring reaction, Enzyme of Strain C11 [16]: ++ (a saccharide-transferred product was detected in an amount over ten percent through transfer reaction to acceptor) |
